Data from ChEMBL document CHEMBL1201862, “PubChem BioAssay data set” (2004).
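A five-concentration, 48-hour dose response in 96-well plates underlies each endpoint, interpolated linearly between surrounding concentrations. GI50 is the concentration that inhibits growth by half.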 Calls of active or inactive are those of the source. Rule as the data show it: active = GI50 up to about 1.1 µM and inactive = higher.

Columns and labels:
Experiment in all cases: NCI-60 cell line screen, 48 h
HOP-92 = test system: HOP-92
RPMI-8226 = test system: RPMI-8226
MOLT-4 = test system: MOLT-4
CCRF-CEM = test system: CCRF-CEM
SK-MEL-5 = test system: SK-MEL-5
SF-268 = test system: SF-268
UACC-257 = test system: UACC-257
U-251 = test system: U-251
SNB-75 = test system: SNB-75
EKVX = test system: EKVX
A498 = test system: A498
SN12C = test system: SN12C
NCI-H460 = test system: NCI-H460
HCT-15 = test system: HCT-15
SW-620 = test system: SW-620
786-0 = test system: 786-0
ACHN = test system: ACHN
A549 = test system: A549
HL-60 = test system: HL-60
OVCAR-5 = test system: OVCAR-5
SK-MEL-28 = test system: SK-MEL-28
KM12 = test system: KM12
RXF 393 = test system: RXF 393
SF-295 = test system: SF-295
K562 = test system: K562
SNB-19 = test system: SNB-19
M19-MEL = test system: M19-MEL
UACC-62 = test system: UACC-62
HOP-62 = test system: HOP-62
SNB-78 = test system: SNB-78
HCT-116 = test system: HCT-116
SR = test system: SR
LOX IMVI = test system: LOX IMVI
XF498 = test system: XF498
KM-20L2 = test system: KM-20L2
M14 = test system: M14
NCI-H23 = test system: NCI-H23
HT-29 = test system: HT-29
OVCAR-4 = test system: OVCAR-4
COLO 205 = test system: COLO 205
CAKI-1 = test system: CAKI-1
OVCAR-8 = test system: OVCAR-8
SK-MEL-2 = test system: SK-MEL-2
OVCAR-3 = test system: OVCAR-3
Malme-3M = test system: Malme-3M
LXFL 529 = test system: LXFL 529
SF-539 = test system: SF-539
DMS-273 = test system: DMS-273
SK-OV-3 = test system: SK-OV-3
NCI-H522 = test system: NCI-H522
DMS-114 = test system: DMS-114
NCI-H226 = test system: NCI-H226
UO-31 = test system: UO-31
IGROV-1 = test system: IGROV-1
DLD-1 = test system: DLD-1
TK-10 = test system: TK-10
HCC 2998 = test system: HCC 2998

Measured: GI50

CC[S+](C)c1ccc(-c2c3nc(c(-c4ccc([S+](C)CC)cc4)c4ccc([nH]4)c(-c4ccc([S+](C)CC)cc4)c4nc(c(-c5ccc([S+](C)CC)cc5)c5ccc2[nH]5)C=C4)C=C3)cc1.[O-][Cl+3]([O-])([O-])[O-].[O-][Cl+3]([O-])([O-])[O-].[O-][Cl+3]([O-])([O-])[O-].[O-][Cl+3]([O-])([O-])[O-] (stereo unspecified)
19.3 µM: HCT-15
active: HOP-92 0.649 µM | XF498 0.881 µM
inactive: RPMI-8226 7.78 µM | MOLT-4 20 µM | CCRF-CEM 18.9 µM | SK-MEL-5 24.7 µM | SF-268 21.8 µM | UACC-257 31 µM | U-251 16.6 µM | SNB-75 24.3 µM | EKVX 11 µM | A498 36.6 µM | SN12C 16.8 µM | NCI-H460 22 µM | SW-620 28.3 µM | 786-0 27.7 µM | ACHN 29.6 µM | A549 18.5 µM | HL-60 6.41 µM | OVCAR-5 21.7 µM | SK-MEL-28 18.9 µM | KM12 20.3 µM | RXF 393 13.6 µM | SF-295 28.7 µM | K562 13.9 µM | SNB-19 93.8 µM | M19-MEL 40.9 µM | UACC-62 12.9 µM | HOP-62 30.1 µM | SNB-78 56.2 µM | HCT-116 27.9 µM | SR 18.5 µM | LOX IMVI 11.3 µM | KM-20L2 14.1 µM | M14 24.9 µM | NCI-H23 38.6 µM | HT-29 29.2 µM | OVCAR-4 > 100 µM | COLO 205 35.9 µM | CAKI-1 39.1 µM | OVCAR-8 22.9 µM | SK-MEL-2 18.2 µM | OVCAR-3 56.9 µM | Malme-3M 4.4 µM | LXFL 529 10.1 µM | SF-539 27.4 µM | DMS-273 34.4 µM | SK-OV-3 30.4 µM | NCI-H522 29.6 µM

N#C/N=C1\NCCC(=O)N1CCc1c[nH]c2ccccc12
inactive: RPMI-8226 > 100 µM | MOLT-4 > 100 µM | DMS-114 > 100 µM | CCRF-CEM > 100 µM | SK-MEL-5 > 100 µM | SF-268 > 100 µM | UACC-257 > 100 µM | NCI-H226 > 100 µM | SNB-75 > 100 µM | UO-31 > 100 µM | EKVX > 100 µM | SN12C > 100 µM | IGROV-1 > 100 µM | DLD-1 > 100 µM | SW-620 > 100 µM | 786-0 > 100 µM | A549 > 100 µM | TK-10 > 100 µM | HL-60 > 100 µM | SK-MEL-28 > 100 µM | KM12 > 100 µM | RXF 393 > 100 µM | SF-295 > 100 µM | K562 > 100 µM | SNB-19 > 100 µM | M19-MEL > 100 µM | UACC-62 > 100 µM | HOP-62 > 100 µM | SNB-78 > 100 µM | HCT-116 > 100 µM | SR > 100 µM | LOX IMVI > 100 µM | XF498 > 100 µM | M14 > 100 µM | NCI-H23 > 100 µM | HT-29 > 100 µM | OVCAR-4 > 100 µM | COLO 205 > 100 µM | OVCAR-8 > 100 µM | HCC 2998 > 100 µM | OVCAR-3 > 100 µM | LXFL 529 > 100 µM | SF-539 > 100 µM | DMS-273 > 100 µM | SK-OV-3 > 100 µM
> 100 µM: HCT-15
